In article PMC8097972 (Journal of neurochemistry, 2020):

Columns and labels:
Kv1.3 [1] = target: Kv1.3 (Rattus norvegicus, UniProt P15384); assay: Whole-cell patch-clamp inhibition of Kv1.3 in transfected HEK293 cells; assay type: cell-based; conditions: 10 nM; T0 vs T5 (225 s); two-way mixed-design ANOVA
DIO mice [2] = assay: Indirect calorimetry; assay type: in vivo, mouse; conditions: +2 to +12, light and dark cycle; light p = 0.496, dark p = 0.2581
DIO mice [3] = assay: Intraperitoneal glucose tolerance test in obese mice; assay type: in vivo, mouse; conditions: day +13 after OB pump start, 12 h fasted, vs PBS; treatment p = 0.0146
mitral cells = conditions: cited from earlier work
Kv1.3 [4] = conditions: ref Knaus et al. 1995; Fadool and Levitan 1998; cited from earlier work

Chain of Kv1.3 (Rattus norvegicus, UniProt P15384) (P15384 whole entry): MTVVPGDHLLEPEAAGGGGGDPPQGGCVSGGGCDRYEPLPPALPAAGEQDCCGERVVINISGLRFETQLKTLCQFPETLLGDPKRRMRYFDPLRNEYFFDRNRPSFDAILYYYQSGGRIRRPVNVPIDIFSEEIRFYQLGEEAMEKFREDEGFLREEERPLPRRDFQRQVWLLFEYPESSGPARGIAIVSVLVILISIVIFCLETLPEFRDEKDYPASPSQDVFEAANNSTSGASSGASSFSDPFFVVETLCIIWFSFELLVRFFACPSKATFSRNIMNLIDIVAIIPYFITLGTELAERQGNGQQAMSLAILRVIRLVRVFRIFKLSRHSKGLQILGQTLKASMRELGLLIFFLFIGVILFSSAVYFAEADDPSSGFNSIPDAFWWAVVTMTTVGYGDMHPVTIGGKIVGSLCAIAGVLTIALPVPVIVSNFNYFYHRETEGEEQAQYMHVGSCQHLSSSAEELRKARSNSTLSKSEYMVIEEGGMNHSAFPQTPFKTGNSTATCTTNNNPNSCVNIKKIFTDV

## QDMgTx: HisMgTx conjugated to His-PIMA-ZW capped CdSe-ZnS QDs by metal-histidine self-assembly (TIINVKCTSPKQCLPPCKAQFGQSAGAKCMNGKCKCYPH; His tag; self-assembled on CdSe-ZnS quantum dots; UniProt P40755 1-39, looked up)
Kv1.3 [1]
  change in Kv1.3 peak current amplitude (in words): significantly decreased Kv1.3 peak current amplitude
DIO mice [2]
  energy expenditure (EE): no change in EE in either the light or dark cycle
DIO mice [3]
  glucose clearance (IPGTT): cleared glucose significantly faster than control animals

## margatoxin (TIINVKCTSPKQCLPPCKAQFGQSAGAKCMNGKCKCYPH; UniProt P40755 1-39, looked up) [MgTx]
Mitral cells; ref Mast and Fadool 2012, Thiebaud et al. 2016
  effect on mitral cell spike firing: increase the spike firing frequency and reduce the pause duration between AP trains, but have less effect on ISI
Kv1.3 [4]
  koff (printed as a time): 2 h
  kon (in words): rather slow for a vestibule blocker

## insulin
Mitral cells; following diet-induced obesity, ref Fadool et al. 2011
  ability to increase mitral cell activity after diet-induced obesity: significantly reduced
